# Reference: BindingDB's records for doi:10.1016/0960-894X(95)00340-Y (1995)
# Structures can show the parent of a compound that is named as a salt.
# Molecular target: Leukotriene B4 receptor 1 (Cavia porcellus)
# Assay: Binding affinity against Guinea pig membrane LTB4 Receptor.
row,SMILES,Ki [nM]
1,CCCc1cc(CC)c(OCCCCCC(C)(C)c2nn[nH]n2)cc1O [Sodium salt of 4-Ethyl-5-[6-methyl-6-(2H-tetrazol-5-yl)-heptyloxy]-2-propyl-phenol],14
2,"CCc1cc(CC)c(OCCCCCC(C)(C)c2nn[nH]n2)cc1O [sodium 2,4-diethyl-5-[6-methyl-6-(2H-1,2,3,4-tetraazol-5-yl)heptyloxy]phenol]",17
3,"CCCCCCc1cc(CC)c(OCCCCCC(C)(C)c2nn[nH]n2)cc1O [sodium 4-ethyl-2-hexyl-5-[6-methyl-6-(2H-1,2,3,4-tetraazol-5-yl)heptyloxy]phenol]",33
